Test results: patent publication US10351547B2, “Somatostatin modulators and uses thereof” (priority 2016, dated 2019)

target: human SSTR2 (Homo sapiens (Human), UniProt P30874); assay: Human SSTR2 intracellular cAMP functional assay for agonists (HTRF); format: cell-based; conditions: not given
Procedure, shortened: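 Cells bearing human SSTR2 exposed to compound for 20 minutes at 37 °C; after lysis, cAMP measured by time-resolved fluorescence (HTRF) and converted via a standard curve. EC50 calculated from cAMP versus compound concentration.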

Sequence of human SSTR2 (P30874 whole entry): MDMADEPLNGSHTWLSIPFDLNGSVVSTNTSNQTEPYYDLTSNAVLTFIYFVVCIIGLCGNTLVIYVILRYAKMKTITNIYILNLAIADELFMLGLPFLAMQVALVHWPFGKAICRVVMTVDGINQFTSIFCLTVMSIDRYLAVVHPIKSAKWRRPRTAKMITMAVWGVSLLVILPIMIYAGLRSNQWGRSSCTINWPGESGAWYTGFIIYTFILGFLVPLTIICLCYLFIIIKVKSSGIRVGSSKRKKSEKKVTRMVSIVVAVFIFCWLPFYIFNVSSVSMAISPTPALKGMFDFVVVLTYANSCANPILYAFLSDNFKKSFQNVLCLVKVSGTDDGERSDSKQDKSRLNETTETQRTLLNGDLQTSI

SMILES | EC50 [nM]
Cc1cc(F)cc(-c2cnc3ccc(-c4cc(F)cc(C#N)c4O)cc3c2N2CC(CN3CCC(F)(F)C3)C2)c1 [2-47, 3-(4-{3-[(3,3-difluoropyrrolidin-1-yl)methyl]azetidin-1-yl}-3-(3-fluoro-5-methylphenyl)quinolin-6-yl)-5-fluoro-2-hydroxybenzonitrile] | 100 to 1000
CCNCC1CN(c2c(-c3cc(C)cc(F)c3)cnc3ccc(-c4cc(F)cc(C#N)c4O)cc23)C1 [2-18, 3-(4-{3-[(ethylamino)methyl]azetidin-1-yl}-3-(3-fluoro-5-methylphenyl)quinolin-6-yl)-5-fluoro-2-hydroxybenzonitrile] | < 10
CON=Cc1c(F)cccc1-c1ccc2ncc(-c3cc(F)cc(F)c3)c(N3CCC(N)CC3)c2c1 [2-129, 1-[3-(3,5-difluorophenyl)-6-{3-fluoro-2-[(methoxyimino)methyl]phenyl}quinolin-4-yl]piperidin-4-amine] | 10 to 100
Cc1cc(F)cc(-c2ccc3nnc(-c4cc(F)cc(C(N)=O)c4)c(N4CCC(N)CC4)c3c2)c1 [1-15, 3-[4-(4-aminopiperidin-1-yl)-6-(3-fluoro-5-methylphenyl)cinnolin-3-yl]-5-fluorobenzamide] | 10 to 100
CO[C@H]1CN(c2c(-c3cc(F)cc(F)c3)cnc3ccc(-c4cccc(C#N)c4O)cc23)CC[C@H]1N [2-61, 3-{4-[(3S,4R)-4-amino-3-methoxypiperidin-1-yl]-3-(3,5-difluorophenyl)quinolin-6-yl}-2-hydroxybenzonitrile] | 10 to 100
CO/N=C/c1cccc(-c2ccc3ncc(-c4cc(F)cc(F)c4)c(N4CCC(N)CC4)c3c2)c1O [2-81, 2-[4-(4-aminopiperidin-1-yl)-3-(3,5-difluorophenyl)quinolin-6-yl]-6-methoxyiminomethyl-phenol] | < 10
Cc1cc(F)cc(-c2cnc3ccc(-c4cc(F)cc(C#N)c4O)cc3c2N2CC(CN3CCOCC3)C2)c1 [2-35, 5-fluoro-3-[3-(3-fluoro-5-methylphenyl)-4-[3-(morpholin-4-ylmethyl)azetidin-1-yl]quinolin-6-yl]-2-hydroxybenzonitrile] | 100 to 1000

same assay, conditions: CHO-K1 cells stably expressing human SSTR2; NKH477-stimulated cAMP; read-out: EC50 (inhibition of cAMP activities via human SST2R)

SMILES | EC50 [nM]
C#Cc1cncc(-c2ccc3ncc(-c4cc(F)cc(F)c4)c(N4CC[C@H]5OCCN[C@@H]5C4)c3c2)c1N (relative stereo) [2-274, 3-{4-[trans-octahydro-1H-pyrido[3,4-b]morpholin-6-yl]-3-(3,5-difluorophenyl)quinolin-6-yl}-5-ethynylpyridin-4-amine] | < 10
NC1CCN(c2c(-c3cc(F)cc(F)c3)cnc3ccc(-c4cc(F)c5[nH]c(=O)[nH]c5c4)nc23)CC1 [3-9, 6-[8-(4-aminopiperidin-1-yl)-7-(3,5-difluorophenyl)-1,5-naphthyridin-2-yl]-4-fluoro-2,3-dihydro-1H-1,3-benzodiazol-2-one] | < 10
Cc1cc(F)cc(-c2cnc3ccc(-c4cc(F)cc(C#N)c4O)cc3c2N2CC(CN3CC[C@H](F)C3)C2)c1 [2-49, 5-fluoro-3-[3-(3-fluoro-5-methylphenyl)-4-(3-{[(3 S)-3-fluoropyrrolidin-1-yl]methyl}azetidin-1-yl)quinolin-6-yl]-2-hydroxybenzonitrile] | < 10
Cn1cc(-c2ccc3ncc(-c4cc(F)cc(F)c4)c(N4CC[C@H]5NCCO[C@@H]5C4)c3c2)c(C(N)=O)n1 (relative stereo) [2-257, 4-{4-[trans-octahydro-1H-pyrido[3,4-b]morpholin-6-yl]-3-(3,5-difluorophenyl)quinolin-6-yl}-1-methyl-1H-pyrazole-3-carboxamide] | 10 to 100
Oc1c(F)cncc1-c1ccc2ncc(-c3cc(F)cc(F)c3)c(N3CC[C@H]4NCCO[C@@H]4C3)c2c1 (relative stereo) [2-256] | 10 to 100
N#Cc1cncc(-c2ccc3ncc(-c4cc(F)cc(F)c4)c(N4CCC(N)CC4)c3c2)c1N [2-177, 4-amino-5-[4-(4-aminopiperidin-1-yl)-3-(3,5-difluorophenyl)quinolin-6-yl]pyridine-3-carbonitrile] | < 10
Cn1cc(-c2ccc3ncc(-c4cc(F)cc(F)c4)c(N4CC[C@H]5NCCO[C@@H]5C4)c3c2)c(C=NO)n1 (relative stereo) [2-260, N-[(4-{4-[trans-octahydro-1H-pyrido[3,4-b]morpholin-6-yl]-3-(3,5-difluorophenyl)quinolin-6-yl}-1-methyl-1H-pyrazol-3-yl)methylidene]hydroxylamine] | < 10
COCCOc1c(C#N)cc(F)cc1-c1ccc2ncc(-c3cc(C)cc(F)c3)c(N3CCC(N)CC3)c2c1 [2-204, 3-[4-(4-aminopiperidin-1-yl)-3-(3-fluoro-5-methylphenyl)quinolin-6-yl]-5-fluoro-2-(2-methoxyethoxy)benzonitrile] | < 10
N#Cc1cc(F)c(F)c(-c2ccc3ncc(-c4cc(F)cc(F)c4)c(N4CCC(N)CC4)c3c2)c1O [2-99, 3-[4-(4-aminopiperidin-1-yl)-3-(3,5-difluorophenyl)quinolin-6-yl]-4,5-difluoro-2-hydroxybenzonitrile] | < 10
CONC(=O)Nc1ncccc1-c1ccc2ncc(-c3cc(C)cc(F)c3)c(N3CCC(N)CC3)c2c1 [2-226, 1-{3-[4-(4-aminopiperidin-1-yl)-3-(3-fluoro-5-methylphenyl)quinolin-6-yl]pyridin-2-yl}-3-methoxyurea] | < 10
Cc1cc(Cl)cc(-c2nnc3cc(Cl)c(-c4cc(F)cc(C#N)c4O)cc3c2N2CCC(N)CC2)c1 [1-12, 3-[4-(4-aminopiperidin-1-yl)-7-chloro-3-(3-chloro-5-methylphenyl)cinnolin-6-yl]-5-fluoro-2-hydroxybenzonitrile] | < 10
CCCNCC1CN(c2c(-c3cc(C)cc(F)c3)cnc3ccc(-c4cccc(C#N)c4O)cc23)C1 [2-42, 3-[3-(3-fluoro-5-methylphenyl)-4-{3-[(propylamino)methyl]azetidin-1-yl}quinolin-6-yl]-2-hydroxybenzonitrile] | < 10
COCOc1c(C#N)cc(F)cc1-c1ccc2ncc(-c3cc(F)cc(F)c3)c(N3CCC(N)CC3)c2c1 [2-194, 3-[4-(4-aminopiperidin-1-yl)-3-(3,5-difluorophenyl)quinolin-6-yl]-5-fluoro-2-(methoxymethoxy)benzonitrile] | < 10
Cc1cc(F)cc(-c2nnc3ccc(-c4ccc5[nH]c(=O)[nH]c5c4)cc3c2N2CCC(N)CC2)c1 [1-16, 5-[4-(4-aminopiperidin-1-yl)-3-(3-fluoro-5-methylphenyl)cinnolin-6-yl]-2,3-dihydro-1H-1,3-benzodiazol-2-one] | < 10
Oc1ncc(F)cc1-c1ccc2ncc(-c3cc(F)cc(F)c3)c(N3CC[C@H]4NCCO[C@@H]4C3)c2c1 (relative stereo) [2-259] | < 10
COCCNc1nn(C)cc1-c1ccc2ncc(-c3cc(C)cc(F)c3)c(N3CCC(N)CC3)c2c1 [2-229, 1-[3-(3-fluoro-5-methylphenyl)-6-{3-[(2-methoxyethyl)amino]-1-methyl-1H-pyrazol-4-yl}quinolin-4-yl]piperidin-4-amine] | < 10
Cc1cc(F)cc(-c2cnc3ncc(-c4cccc(C#N)c4O)cc3c2N2CCC(N)CC2)c1 [4-2, 3-[5-(4-aminopiperidin-1-yl)-6-(3-fluoro-5-methylphenyl)-1,8-naphthyridin-3-yl]-2-hydroxybenzonitrile] | < 10
COC(=O)Nc1nn(C)cc1-c1ccc2ncc(-c3cc(C)cc(F)c3)c(N3CCC(N)CC3)c2c1 [2-214, methyl N-{4-[4-(4-aminopiperidin-1-yl)-3-(3-fluoro-5-methylphenyl)quinolin-6-yl]-1-methyl-1H-pyrazol-3-yl}carbamate] | < 10
CON(C)C(=O)Nc1c(C#N)cc(F)c(F)c1-c1ccc2ncc(-c3cc(C)cc(F)c3)c(N3CCC(N)CC3)c2c1 [2-206, 1-{2-[4-(4-aminopiperidin-1-yl)-3-(3-fluoro-5-methylphenyl)quinolin-6-yl]-6-cyano-3,4-difluorophenyl}-3-methoxy-3-methylurea] | < 10
COC(=O)[C@@H]1CN(c2c(-c3cc(F)cc(F)c3)cnc3ccc(-c4cccc(C#N)c4O)cc23)CC[C@H]1N (relative stereo) [2-143, methyl trans-4-amino-1-[6-(3-cyano-2-hydroxyphenyl)-3-(3,5-difluorophenyl)quinolin-4-yl]piperidine-3-carboxylate] | < 10
N#Cc1cncc(-c2ccc3ncc(-c4cc(F)cc(F)c4)c(N4CC[C@H]5NCCO[C@@H]5C4)c3c2)c1O [2-254, 5-{4-[trans-octahydro-1H-pyrido[3,4-b]morpholin-6-yl]-3-(3,5-difluorophenyl)quinolin-6-yl}-4-hydroxypyridine-3-carbonitrile] | 10 to 100
Cc1cc(Cl)cc(-c2nnc3ccc(-c4cccc(F)c4O)cc3c2N2CCC(N)CC2)c1 [1-29, 2-[4-(4-aminopiperidin-1-yl)-3-(3-chloro-5-methylphenyl)cinnolin-6-yl]-6-fluorophenol] | < 10
N#Cc1cccc(-c2ccc3ncc(-c4cc(F)cc(F)c4)c(N4CC[C@@H](N)[C@H](C(=O)O)C4)c3c2)c1O [2-145] | 100 to 1000
N#Cc1cccc(-c2ccc3ncc(-c4cc(F)cc(F)c4)c(N4CC[C@@H](N)[C@H](C#N)C4)c3c2)c1O (relative stereo) [2-92, trans-4-amino-1-[6-(3-cyano-2-hydroxyphenyl)-3-(3,5-difluorophenyl)quinolin-4-yl]piperidine-3-carbonitrile] | 100 to 1000
O=c1[nH]c2cc(-c3ccc4ncc(-c5cc(F)cc(F)c5)c(N5CC[C@H]6NCCO[C@@H]6C5)c4c3)cc(F)c2[nH]1 [2-80, trans-6-[3-(3,5-difluorophenyl)-4-{octahydro-1H-pyrido[3,4-b]morpholin-6-yl}quinolin-6-yl]-4-fluoro-2,3-dihydro-1H-1,3-benzodiazol-2-one] | < 10
Cc1cc(Cl)cc(-c2nnc3ccc(-c4cc(F)cc(C#N)c4O)cc3c2N2CCC(N)CC2)c1 [1-22, 3-[4-(4-aminopiperidin-1-yl)-3-(3-chloro-5-methylphenyl)cinnolin-6-yl]-5-fluoro-2-hydroxybenzonitrile] | < 10
